Source: patent US20250122174A1 (Shenzhen Yuanli Shenwan Innovative Medicine Co., Ltd., priority 2022, published 2025)

biological target: HPK1 (Homo sapiens (Human), UniProt Q92918); assay: HPK1 Inhibition Assay (ADP-Glo kinase assay); format: biochemical; details: ATP 10 μM
Summary of the method: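 ADP-Glo luminescence read-out after 1 h room-temperature kinase reaction with 10 μM ATP and 0.1 μg/ml MBP. Recombinant human HPK1 at 7.5 ng/μl; buffer 40 mM Tris pH 7.5, 20 mM MgCl2. Compounds serially diluted 5-fold over 10 points from 10 mM DMSO stock.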

Sequence of HPK1 (Q92918 1-346 limits assumed): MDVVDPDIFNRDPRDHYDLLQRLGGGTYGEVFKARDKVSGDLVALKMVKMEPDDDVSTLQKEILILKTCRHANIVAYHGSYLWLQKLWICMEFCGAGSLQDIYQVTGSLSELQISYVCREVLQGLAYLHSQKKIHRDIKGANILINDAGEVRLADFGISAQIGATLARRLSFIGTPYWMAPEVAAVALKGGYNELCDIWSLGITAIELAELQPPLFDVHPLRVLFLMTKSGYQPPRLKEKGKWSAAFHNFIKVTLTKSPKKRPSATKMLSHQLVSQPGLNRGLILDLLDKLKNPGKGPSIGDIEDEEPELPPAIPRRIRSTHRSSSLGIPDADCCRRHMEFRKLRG

IC50, < 100 nM:
N[C@@H]1CCN(c2c(NC(=O)c3ccc(=O)n(-c4c(F)cccc4F)n3)ccc3c2cnn3C2CCCC2)C1 [Example 287, (R)-N-(4-(3-aminopyrrolidin-1-yl)-1-cyclopentyl-1H-indazol-5-yl)-1-(2,6-difluorophenyl)-6-oxo-1,6-dihydropyridazine-3-carboxamide]
C[C@@H]1CN(c2c(NC(=O)c3ccc(=O)n(-c4c(F)cccc4F)n3)ccc3c2cnn3C2CCCC2)C[C@@H]1N [Example 288, N-(4-((3R,4R)-3-amino-4-methylpyrrolidin-1-yl)-1-cyclopentyl-1H-indazol-5-yl)-1-(2,6-difluorophenyl)-6-oxo-1,6-dihydropyridazine-3-carboxamide34]
CCn1ncc2c(N3CC[C@@H](N)C3)c(NC(=O)c3ccc(=O)n(-c4c(F)cccc4F)n3)cc(F)c21 [Example 289, (R)-N-(4-(3-aminopyrrolidin-1-yl)-1-ethyl-7-fluoro-1H-indazol-5-yl)-1-(2,6-difluorophenyl)-6-oxo-1,6-dihydropyridazine-3-carboxamide]
N[C@@H]1CCN(c2c(NC(=O)c3ccc(=O)n(-c4c(F)cccc4F)n3)ccc3c2cnn3CC(F)(F)F)C1 [Example 290, (R)-N-(4-(3-aminopyrrolidin-1-yl)-1-(2,2,2-trifluoroethyl)-1H-indazol-5-yl)-1-(2,6-difluorophenyl)-6-oxo-1,6-dihydropyridazine-3-carboxamide]
C[C@@H]1CN(c2c(NC(=O)c3ccc(=O)n(-c4c(F)cccc4F)n3)ccc3c2cnn3CC(F)(F)F)C[C@@H]1N [Example 291, N-(4-((3R,4R)-3-amino-4-methylpyrrolidin-1-yl)-1-(2,2,2-trifluoroethyl)-1H-indazol-5-yl)-1-(2,6-difluorophenyl)-6-oxo-1,6-dihydropyridazine-3-carboxamide]
CCn1ncc2c(N3CC[C@@H](N)C3)c(NC(=O)c3ccc(=O)n(-c4c(F)cccc4F)n3)ccc21 [Example 292, (R)-N-(4-(3-aminopyrrolidin-1-yl)-1-ethyl-1H-indazol-5-yl)-1-(2,6-difluorophenyl)-6-oxo-1,6-dihydropyridazine-3-carboxamide]
COCCn1ncc2c(N3CC[C@@H](N)C3)c(NC(=O)c3ccc(=O)n(-c4c(F)cccc4F)n3)cc(F)c21 [Example 293, (R)-N-(4-(3-aminopyrrolidin-1-yl)-7-fluoro-1-(2-methoxyethyl)-1H-indazol-5-yl)-1-(2,6-difluorophenyl)-6-oxo-1,6-dihydropyridazine-3-carboxamide]
CC(C)Cn1ncc2c(N3CC[C@@H](N)C3)c(NC(=O)c3ccc(=O)n(-c4c(F)cccc4F)n3)ccc21 [Example 294, (R)-N-(4-(3-aminopyrrolidin-1-yl)-1-isobutyl-1H-indazol-5-yl)-1-(2,6-difluorophenyl)-6-oxo-1,6-dihydropyridazine-3-carboxamide]
N[C@@H]1CCN(c2c(NC(=O)c3ccc(=O)n(-c4c(F)cccc4F)n3)ccc3c2cnn3CC2CC2)C1 [Example 295, (R)-N-(4-(3-aminopyrrolidin-1-yl)-1-(cyclopropylmethyl)-1H-indazol-5-yl)-1-(2,6-difluorophenyl)-6-oxo-1,6-dihydropyridazine-3-carboxamide]
C[C@@H]1CN(c2c(NC(=O)c3ccc(=O)n(-c4c(F)cccc4F)n3)ccc3c2cnn3C2CCC2)C[C@@H]1N [Example 296, N-(4-((3R,4R)-3-amino-4-methylpyrrolidin-1-yl)-1-cyclobutyl-1H-indazol-5-yl)-1-(2,6-difluorophenyl)-6-oxo-1,6-dihydropyridazine-3-carboxamide]
